For one experiment, the system named is enterobacteria. In words: Specificity of phosphatase substrates: growth and coloration of enterobacteria strains on chromogenic agar media. The class given is cell-based. Particulars: for coloration: % of enterobacteria strains coloured; for coloration >= 1: % of enterobacteria strains positive (intensity >= 1 on 0-4 reading scale); for growth: enterobacteria strains grown / 31 tested. Here is the method:
(§1) 38 bacterial strains, among which 31 enterobacteria and 7 non-enterobacteria, were tested on media containing various phosphatase substrates. Readings of the dishes were then taken at 24 h.
(§2) Then phosphatase substrates are added as follows: • Medium 1: addition of X-phosphate (X-P) at 60 mg/l • Medium 2: addition of Rose-phosphate (Rose-P) at 300 mg/L • Medium 3: addition of Magenta-phosphate (Magenta-P) at 300 mg/L • Medium 4: addition of Purple-phosphate (Purple-P) at 200 mg/L
(§3) The media are divided into Petri dishes.
(§4) Inoculation is performed from 24 h pre-cultures at 30° C. or 37° C., depending on the species, on Trypticase-soy medium.
(§5) Suspension in 0.5 McF physiological water is performed, and then the strains are inoculated with a 10 μl calibrated oese.
(§6) Readings are taken after 24 h and 48 h of incubation at 37° C.
(§7) Colonies with coloration intensities greater than or equal to 1 were considered positive, applying the reading scale below.
(§8) Reading scale of enzymatic activity/coloration • 0=no activity • 0.5=very pale coloration • 1=low-intensity distinct coloration • 2=medium-intensity obvious coloration • 3=intense coloration present, • 4=highly intense coloration present.

The subject of experiment [1] is non-fermenting Gram-negative. The experiment can be described thus: Specificity of phosphatase substrates: growth and coloration of non-enterobacteria strains on chromogenic agar media. In kind it is cell-based, non-fermenting Gram-negative bacteria. As to conditions: for coloration >= 1: % positive non-fermenting Gram-negative strains; for growth: non-fermenting Gram-negative strains grown / 7 tested. Here is the method:
as §1, §2, §3, §4, §5, §6, §7, §8

As for “5-bromo-6-chloro-3-indoxyl-phosphate [Magenta-P]”, the “sensitivity of the substrate compared with the other substrates” value is reported as “most sensitive” in the experiment with enterobacteria (24 h) and “largely identical” in the experiment with enterobacteria (48 h). In the experiment with enterobacteria (48 h at 37° C.), the coloration was determined as 100%. In addition, the “coloration >= 1” value stood at 90% with enterobacteria (24 h at 37° C.), 0% in experiment [1] (24 h at 37° C.) and 0% in experiment [1] (48 h at 37° C.). The growth in the experiment with enterobacteria (24 h at 37° C.) was 30/31; in the experiment on enterobacteria (48 h at 37° C.) it was 31/31; in experiment [1] (24 h at 37° C.), 5/7; in experiment [1] (48 h at 37° C.) it was 7/7.

For `O=P(O)(O)Oc1c[nH]c2cc(Cl)ccc12` [Rose-P, 6-chloro-3-indoxyl-phosphate], the “sensitivity of the substrate compared with the other substrates” value in the experiment on enterobacteria (24 h) and with enterobacteria (48 h) was “least sensitive” each time. The compound further displayed a coloration in the experiment with enterobacteria (48 h at 37° C.) of 94%. Moreover, the “coloration >= 1” value in the experiment on enterobacteria (24 h at 37° C.) stood at 77%; in experiment [1] (24 h at 37° C.) it was 0%; in experiment [1] (48 h at 37° C.), 0%. The growth was 30/31 with enterobacteria (24 h at 37° C.), 31/31 in the experiment with enterobacteria (48 h at 37° C.), 5/7 in experiment [1] (24 h at 37° C.) and 7/7 in experiment [1] (48 h at 37° C.).

On to `O=P(O)(O)Oc1c[nH]c2ccc(Br)c(Cl)c12` [X-P, 5-bromo-4-chloro-3-indoxyl-phosphate], for which the “sensitivity of the substrate compared with the other substrates” value with enterobacteria (24 h) is recorded as “most sensitive”; in the experiment with enterobacteria (48 h), “largely identical”. This compound also gave a coloration in the experiment on enterobacteria (48 h at 37° C.) of 97%. In addition, the results for the “coloration >= 1” value (in the experiment on enterobacteria (24 h at 37° C.); in experiment [1] (24 h at 37° C.); in experiment [1] (48 h at 37° C.)) were 90%, 0% and 0%, respectively. Moreover, the growth with enterobacteria (24 h at 37° C.) is 30/31; in the experiment on enterobacteria (48 h at 37° C.), 31/31; in experiment [1] (24 h at 37° C.) it was 7/7; in experiment [1] (48 h at 37° C.) it was 7/7.

(Values after patent US10808275B2, “Use of at least one chromogenic and/or fluorogenic phosphatase substrate for the detection and/or enumeration of enterobacteria in a sample” (BIOMERIEUX, priority 2013, dated 2020).)
